For one assay, the target named is T1, Dihydrofolate reductase (Mus musculus, UniProt P00375).
T1 sequence (P00375 whole entry): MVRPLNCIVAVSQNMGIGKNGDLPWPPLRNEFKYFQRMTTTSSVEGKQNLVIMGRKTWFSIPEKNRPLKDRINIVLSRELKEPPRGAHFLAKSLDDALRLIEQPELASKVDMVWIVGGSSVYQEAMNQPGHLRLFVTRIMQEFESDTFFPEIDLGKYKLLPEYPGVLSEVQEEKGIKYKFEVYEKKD
In words: Inhibition of Dihydrofolate reductase in mouse L1210 cells. The assay is classed as cell-based.

A further assay has as its system HEp-2. Nature of the assay: Effective dose against H.Ep.-2 cells. The assay is classed as functional. The note with it: Homo sapiens, read-out: ED50 (the source's name).
For assay [1], the system named is L1210. Nature of the assay: Ki value was measured as influx in L1210 cell membrane transport. The class given is functional, cell-based, Mus musculus.
For assay [2], the system named is L1210. Nature of the assay: k value was measured as efflux in L1210 cell membrane transport. The class given is functional, Mus musculus.
Assay [3] has as its system L1210. Nature of the assay: Percent increase in life span was measured against L1210 murine leukemia cells at the dose of 200 mg/kg. The class given is functional. The following applies: Mus musculus.
The nature of assay [4]: The compound was compared with MTX with respect to cytotoxicity toward H.Ep.-2 cells. The class given is functional.
Assay [5] concerns L1210. Nature of the assay: Km value was measured as influx in L1210 cell membrane transport. The note with it: Mus musculus. The class given is functional, cell-based.
Assay [6] deals with L1210. In words: Percent increase in life span was measured against L1210 murine leukemia cells at the dose of 25 mg/kg. The class given is functional. The note with it: Mus musculus.
In assay [7] the test system is L1210. Nature of the assay: Percent increase in life span was measured against L1210 murine leukemia cells at the dose of 2.5 mg/kg. The assay is classed as functional. The following applies: Mus musculus.
Assay [8] has as its system L1210. Nature of the assay: Percent increase in life span was measured against L1210 murine leukemia cells at the dose of 50 mg/kg. The assay is classed as functional. The following applies: Mus musculus.
The subject of assay [9] is L1210. In words: Percent increase in life span was measured against L1210 murine leukemia cells at the dose of 100 mg/kg. The class given is functional. The following applies: Mus musculus.
Assay [10] has as its system L1210. Nature of the assay: Percent increase in life span was measured against L1210 murine leukemia cells at the dose of 180 mg/kg. The assay is classed as functional. The note with it: Mus musculus.
Assay [11] relates to L1210. Nature of the assay: Percent increase in life span was measured against L1210 murine leukemia cells at the dose of 5 mg/kg. The note with it: Mus musculus. The class given is functional.
In assay [12] the test system is L1210. In words: Percent increase in life span was measured against L1210 murine leukemia cells at the dose of 1.3 mg/kg. The assay is classed as functional. The following applies: Mus musculus.

A value given as a limit tells only on which side of the number the result lay.

Consider `CCCCCNC(=O)CCC(NC(=O)c1ccc(N(C)Cc2cnc3nc(N)nc(N)c3n2)cc1)C(=O)O` (stereo not drawn), for which the figures for the Ki on Dihydrofolate reductase and in the assay with L1210 [1] were 0.0035 nM and 16800 nM, respectively. The EC50 with HEp-2 was found to be 55 nM. The molecule further had a k in the assay on L1210 [2] of 0.26 min⁻¹. In addition, the ILS (commonly how much longer treated animals lived than controls) at 200 mg/kg with L1210 [3] was found to be 55%. In addition, the MTX ratio in assay [4] is reported as 23. The Km (commonly the substrate concentration at which the rate is half of its maximum) in the assay on L1210 [5] amounted to 16.9 µM.

For the molecule `CN(Cc1cnc2nc(N)nc(N)c2n1)c1ccc(C(=O)NC(CCC(=O)O)C(=O)N[C@@H](CCC(=O)O)C(=O)O)cc1` (stereo partly drawn), the Ki – broadly, the equilibrium dissociation constant of an inhibitor or competing ligand from its target – on Dihydrofolate reductase amounted to 170 nM; in the assay on L1210 [1] it was 61000 nM. In the assay with HEp-2, the EC50 worked out at 180 nM. For the same molecule, the ILS at 25 mg/kg in the assay on L1210 [6] was found to be 67%. Besides, the MTX ratio in assay [4] is given as 75.

The molecule `CN(Cc1cnc2nc(N)nc(N)c2n1)c1ccc(C(=O)NC(CCC(=O)N[C@@H](CCC(=O)O)C(=O)O)C(=O)O)cc1` (stereo partly drawn) came in with a Ki on Dihydrofolate reductase of 0.0037 nM. The EC50 with HEp-2 was determined as 5.2 nM. In the assay with L1210 [2], this molecule displayed a k of 0.22 min⁻¹. The molecule also returned an ILS at 2.5 mg/kg in the assay on L1210 [7] of 65%. Also, the MTX ratio in assay [4] is recorded as 2.2. The Km with L1210 [5] came to 49.3 µM.

For `CN(C)C(=O)CCC(NC(=O)c1ccc(N(C)Cc2cnc3nc(N)nc(N)c3n2)cc1)C(=O)O` (stereo not drawn), the Ki at Dihydrofolate reductase stood at 0.0039 nM. Besides, the EC50 in the assay on HEp-2 was found to be 59 nM. The molecule also gave a k in the assay on L1210 [2] of 0.26 min⁻¹. The same molecule had an ILS at 50 mg/kg in the assay with L1210 [8] of 44%. Moreover, in [4], the MTX ratio amounted to 25. For the same molecule, in the assay with L1210 [5], the Km came to 48.4 µM.

As for `CN(Cc1cnc2nc(N)nc(N)c2n1)c1ccc(C(=O)NC(CCC(=O)NCc2ccccc2)C(=O)O)cc1` (stereo not drawn), the inhibition constant Ki is 0.0036 nM on Dihydrofolate reductase and 3800 nM in the assay with L1210 [1]. Also, the EC50 in the assay with HEp-2 turned out to be 210 nM. Further, the k with L1210 [2] came out at 0.19 min⁻¹. This molecule showed an ILS at 100 mg/kg with L1210 [9] of 33%. Moreover, the MTX ratio in [4] was found to be 88. The Km in the assay on L1210 [5] was 3.6 µM.

Consider `CN(Cc1cnc2nc(N)nc(N)c2n1)c1ccc(C(=O)NC(CCC(=O)O)C(N)=O)cc1` (stereo not drawn), for which the Ki on Dihydrofolate reductase amounted to 460 nM. Further, the EC50 in the assay on HEp-2 turned out to be 610 nM. For the same molecule, the increase in lifespan (ILS) at 25 mg/kg with L1210 [6] is 34%. For the same molecule, in assay [4], the MTX ratio came to 250.

For the molecule `CNC(=O)CCC(NC(=O)c1ccc(N(C)Cc2cnc3nc(N)nc(N)c3n2)cc1)C(=O)O` (stereo not drawn), the Ki at Dihydrofolate reductase is 0.0027 nM. The EC50 with HEp-2 turned out to be 27 nM. Also, in the assay with L1210 [2], the k came out at 0.21 min⁻¹. The ILS at 100 mg/kg in the assay on L1210 [9] turned out to be 58%. In addition, the MTX ratio in assay [4] was 11. Also, the Michaelis constant (Km) with L1210 [5] amounted to 27.6 µM.

Regarding `CN(Cc1cnc2nc(N)nc(N)c2n1)c1ccc(C(=O)NC(CCC(=O)O)C(=O)NCC(=O)O)cc1` (stereo not drawn), the Ki was 208 nM at Dihydrofolate reductase and 66600 nM in the assay with L1210 [1]. Also, in the assay on HEp-2, the EC50 turned out to be 590 nM. The same molecule returned an ILS at 50 mg/kg in the assay on L1210 [8] of 41%. In addition, the MTX ratio in assay [4] is listed as 370.

As to `CN(Cc1cnc2nc(N)nc(N)c2n1)c1ccc(C(=O)NC(CCC(=O)O)C(=O)N[C@@H](CC(=O)O)C(=O)O)cc1` (stereo partly drawn), the values for the Ki at Dihydrofolate reductase and with L1210 [1] were 208 nM and 146000 nM, respectively. In addition, the EC50 in the assay on HEp-2 was 520 nM. This molecule gave an ILS at 25 mg/kg in the assay with L1210 [6] of 47%. In addition, the MTX ratio in assay [4] is reported as 217.

For the molecule `CN(Cc1cnc2nc(N)nc(N)c2n1)c1ccc(C(=O)NC(CCC(N)=O)C(=O)O)cc1` (stereo not drawn), the values for the Ki on Dihydrofolate reductase and in the assay on L1210 [1] were 0.0027 nM and 8400 nM, respectively. Besides, the EC50 with HEp-2 is 28 nM. Also, the k in the assay on L1210 [2] is 0.15 min⁻¹. The same molecule had an ILS at 180 mg/kg in the assay on L1210 [10] of 58%. Also, the MTX ratio in [4] is 12. Moreover, the Km in the assay with L1210 [5] was 9.4 µM.

At Dihydrofolate reductase, `CN(Cc1cnc2nc(N)nc(N)c2n1)c1ccc(C(=O)NC(CCC(=O)N[C@@H](CC(=O)O)C(=O)O)C(=O)O)cc1` (stereo partly drawn) registered a Ki of 0.0028 nM. Also, the EC50 in the assay with HEp-2 was determined as 330 nM. Also, the ILS at 5 mg/kg with L1210 [11] came to 65%. The MTX ratio in assay [4] turned out to be 140. Moreover, the Km in the assay with L1210 [5] is above 300 µM.

In the case of `CN(Cc1cnc2nc(N)nc(N)c2n1)c1ccc(C(=O)NC(CCC(=O)NCC(=O)O)C(=O)O)cc1` (stereo not drawn), at Dihydrofolate reductase, the Ki turned out to be 0.0029 nM. Besides, the EC50 in the assay on HEp-2 was determined as 5.9 nM. Besides, the k in the assay on L1210 [2] was 2.1 min⁻¹. For the same molecule, the ILS at 5 mg/kg in the assay on L1210 [11] is 74%. Moreover, in assay [4], the MTX ratio stood at 2.5. Further, the Michaelis constant (Km) in the assay with L1210 [5] came out at 3.9 µM.

As to `CN(Cc1cnc2nc(N)nc(N)c2n1)c1ccc(C(=O)N[C@@H](CCC(=O)O)C(=O)O)cc1` [METHOTREXATE], the Ki in the assay on L1210 [1] is 3500 nM. This molecule displayed a k in the assay on L1210 [2] of 0.23 min⁻¹. The molecule further came in with an ILS at 1.3 mg/kg in the assay on L1210 [12] of 48%. Moreover, the Km in the assay with L1210 [5] is 3.3 µM.

(Values after ChEMBL document CHEMBL1122010 (J Med Chem, 1982).)
